{
  "source": "ChEMBL document CHEMBL1150731",
  "about": "“Constituents of Tritonia crocosmaeflora, II. Tricrozarin B, an antitumor naphthazarin derivative” (J Nat Prod, 1987)",
  "key": {"[1]": {"test": "Cytotoxicity against human HeLaS3 cells", "assay_type": "functional, cell-based", "conditions": "HeLa S3"}, "CCRF S-180": {"test_system": "CCRF S-180", "test": "Antitumor activity against mouse S180 cells xenografted ICR mouse at 50 mg/kg, ip relative to control", "assay_type": "functional", "conditions": "route intraperitoneal"}},
  "data": [
    {"smiles": "COC1=C(OC)C(=O)c2c(O)c(OC)cc(O)c2C1=O", "note": "[TRICROZARIN B]", "values": [
      {"measurement": "IC50", "setting": "[1]", "value": 7, "unit": "ng/mL"},
      {"measurement": "T/C", "setting": "CCRF S-180", "value": 146, "unit": "%"}
    ]}
  ]
}
